Several values for one entry are separate records, joined by “and”; a condition that tells them apart may be missing. Equal entries are not always repeated. Where two headings read alike, the source gives them in different places.
Tests used:
SGLT2 = molecular target: T1, SGLT2 (Homo sapiens, UniProt P31639); conditions: cited from earlier work
T1 sequence (P31639 1-672): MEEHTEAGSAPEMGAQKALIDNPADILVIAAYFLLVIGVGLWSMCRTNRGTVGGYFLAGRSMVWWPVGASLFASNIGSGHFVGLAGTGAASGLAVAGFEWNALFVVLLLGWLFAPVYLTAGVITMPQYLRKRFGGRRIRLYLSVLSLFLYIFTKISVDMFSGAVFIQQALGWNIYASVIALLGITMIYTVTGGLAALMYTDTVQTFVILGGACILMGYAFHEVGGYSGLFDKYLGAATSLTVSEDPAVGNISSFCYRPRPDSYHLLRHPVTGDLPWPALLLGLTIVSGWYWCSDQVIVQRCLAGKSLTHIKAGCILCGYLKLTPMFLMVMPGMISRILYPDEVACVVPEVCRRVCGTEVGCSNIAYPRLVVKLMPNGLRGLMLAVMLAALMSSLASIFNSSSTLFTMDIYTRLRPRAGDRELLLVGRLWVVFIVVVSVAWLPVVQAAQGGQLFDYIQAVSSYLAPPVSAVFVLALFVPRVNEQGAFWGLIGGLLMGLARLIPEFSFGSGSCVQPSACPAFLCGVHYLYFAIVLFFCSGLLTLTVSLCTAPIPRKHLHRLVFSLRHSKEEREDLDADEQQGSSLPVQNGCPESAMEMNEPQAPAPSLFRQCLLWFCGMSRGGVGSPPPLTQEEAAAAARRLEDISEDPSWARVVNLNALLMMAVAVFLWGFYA

[1] = cited from earlier work
vSMCs = conditions: via ROS-Nrf2 pathway; cited from earlier work
[2] = cited from earlier work; remark: listed apart in the source
AAA [3] = conditions: PPE induced AAA; cited from earlier work
[4] = tested on: rat aortic smooth muscle cells; conditions: in vitro; cited from earlier work
[5] = cited from earlier work; remark: listed apart in the source
AAA [6] = conditions: apoE-/- Ang II induction model; cited from earlier work
[7] = mice; cited from earlier work
[8] = cited from earlier work; remark: listed apart in the source
human VSMCs = conditions: dependent on TRAF3IP2/ROS/NLRP3/caspase-1; cited from earlier work
abdominal PVAT = conditions: mice fed with Western diet; cited from earlier work
[9] = 28-day study, 28 volunteers; cited from earlier work
[10] = high-fat diet fed mice; cited from earlier work
AAA [11] = conditions: murine models; cited from earlier work
[12] = in vivo
[13] = cited from earlier work; remark: listed apart in the source

Cc1ccc([C@@H]2O[C@H](CO)[C@@H](O)[C@H](O)[C@H]2O)cc1Cc1ccc(-c2ccc(F)cc2)s1 [Canagliflozin]
SGLT2 selectivity over SGLT1 (SGLT2): 250 fold
Protein binding [1]: 99%
expression of heme oxygenase-1 (vSMCs): stimulates
t1/2 ([2]; 100 mg dose): 10.6 h
t1/2 (hours) ([2]; 100 mg dose): 10.6 (100 mg dose); hours
Bioavailability ([2]; 300 mg dose): 65% (300 mg dose)
t1/2 ([2]; 300 mg dose): 13.1 h
t1/2 (hours) ([2]; 300 mg dose): 13.1 (300 mg dose) hours
tmax ([2]; in vivo): 1 to 2 h

CCOc1ccc(Cc2cc([C@@H]3O[C@H](CO)[C@@H](O)[C@H](O)[C@H]3O)ccc2Cl)cc1 [Dapagliflozin, (2S,3R,4R,5S,6R)-2-{4-chloro-3-[(4-ethoxyphenyl)methyl]phenyl}-6-(hydroxymethyl)oxane-3,4,5-triol]
SGLT2 selectivity over SGLT1 (SGLT2): 1200 fold
aneurysmal induction and expansion (AAA [3]): significantly impeded
Bioavailability ([2]; in vivo): 78%
t1/2 ([2]; in vivo): 12.9 h
tmax ([2]; in vivo): 1 to 1.5 h

OC[C@H]1O[C@@H](c2ccc(Cl)c(Cc3ccc(O[C@H]4CCOC4)cc3)c2)[C@H](O)[C@@H](O)[C@@H]1O [Empagliflozin]
aortic smooth muscle cell proliferation [4]: significantly decreased
Bioavailability ([5]; dogs): 89%
effect on AAA (AAA [6]): impedes AAA
Bioavailability [7]: 90-97% and 90–97%
Cmax ([2]; 10 mg dose): 259 nM
t1/2 ([2]; 10 mg dose): 13.2 h
t1/2 (hours) ([2]; 10 mg dose): 13.2 (10 mg dose); hours
Cmax ([2]; 25 mg dose): 687 nM
t1/2 ([2]; 25 mg dose): 13.3 h
t1/2 (hours) ([2]; 25 mg dose): 13.3h (25 mg dose) hours
tmax ([2]; in vivo): 1.5 h
Bioavailability ([8]; rats): 31%
secretion of IL-1b and IL-18 (human VSMCs): inhibits

CCOc1ccc(Cc2cc([C@]34OC[C@](CO)(O3)[C@@H](O)[C@H](O)[C@H]4O)ccc2Cl)cc1 [Ertugliflozin]
SGLT2 selectivity over SGLT1 (SGLT2): 2000 fold
Protein binding [1]: 95%
Cmax ([2]; 15 mg dose): 268 ng/mL (15 mg dose)
Bioavailability ([2]; in vivo): 70-90%
t1/2 ([2]; in vivo): 11 to 17 h
tmax ([2]; in vivo): 0.5 to 1.5 h

OC[C@H]1O[C@@H](c2ccc(F)c(Cc3cc4ccccc4s3)c2)[C@H](O)[C@@H](O)[C@@H]1O [Ipragliflozin]
inflammation, fibrosis, and adipocyte death of abdominal PVAT (abdominal PVAT): attenuated
SGLT2 selectivity over SGLT1 (SGLT2): 360 fold
t1/2 (hours) ([2]; 50 mg dose): 15-16 (50 mg dose) hours and 15–16 (50 mg dose) hours
tmax ([2]; 50 mg): 1 h
Bioavailability ([2]; in vivo): 90%

C[C@@H](O)CCOC(=O)C[C@@H](C)O [KE-BHB]
effect on body weights or composition, fasting blood glucose, cholesterol, triglyceride, or electrolyte concentrations, blood gases or kidney function [9]: no effect

CCOc1ccc(Cc2cc([C@@H]3S[C@H](CO)[C@@H](O)[C@H](O)[C@H]3O)c(OC)cc2C)cc1 [Luseogliflozin]
intimal hyperplasia after bilateral femoral artery wire injury [10]: reducing intimal hyperplasia
SGLT2 selectivity over SGLT1 (SGLT2): 1650 fold
Bioavailability ([5]; male dogs): 97.2%
Cmax ([2]; in vivo): 119 ± 27.0 ng/mL
t1/2 ([2]; in vivo): 9.24 ± 0.928 h
tmax ([2]; in vivo): 0.625 ± 0.354 h
Bioavailability ([8]; female rats): 58.2%

Nc1ccccc1NC(=O)c1ccc(CNC(=O)OCc2cccnc2)cc1 [MS-275]
effect on AAA (AAA [11]): reduce AAA

C[C@@H](O)CC(=O)O [R-BHB, R-beta hydroxybutyrate]
persistence of BHB elevation [12]: ~ 2.5 hours

C[C@H](O)CC(=O)O [S-BHB]
stability in human plasma compared with R/D BHB ([13]; human plasma): far more stable
sustained in plasma, relative to (D/R) BHB ([13]; plasma): more than 2 x
persistence of BHB elevation [12]: 4 to 5 h

CCc1ccc(Cc2ccc3c(c2)[C@]2(OC3)O[C@H](CO)[C@@H](O)[C@H](O)[C@H]2O)cc1 [Tofogliflozin]
SGLT2 selectivity over SGLT1 (SGLT2): 2900 fold
Protein binding [1]: 83%
Cmax ([2]; 10 mg dose): 489 ng/mL
t1/2 ([2]; 10 mg dose): 6.8 h
Bioavailability ([2]; 10 mg): 97.50%
tmax ([2]; 10 mg): 0.75 h
